13 compounds from US7642265B2, “Benzimidazoles and analogs thereof as antivirals” (Isis Pharmaceuticals, Inc., priority 2002, dated 2010) can be followed below.

Like-named read-outs stand apart in the source and are kept apart here.

Data set [1] concerns stem IIa region of the HCV IRES (5′-UTR of HCV RNA). Description: Mass spectrometry based binding assay. The following applies: for binding percentage of ligand to target: Table 1, ligand 50 μM, IIa target 2.5 μM.
Data set [2] in a line: Single dose in vivo pharmacokinetic study. Also on record: species or system rats. To be noted: plasma, rat, single 3.0 mg/kg IV dose, mean; for AUC: iv, 3 mg/kg. The method, then: A single dose pharmacokinetic study was performed to investigate the pharmacokinetics of representative compounds. Of particular interest was the ability of the compounds to accumulate in liver, which is the target tissue for HCV chemotherapy as it is the primary reservoir of virus. 3-4 rats per group were administered a single dose (3 mg/kg intravenously, IV or 6 mg/kg orally, PO). Blood samples were taken at 0.25, 0.5, 1, 2, 3, 4, 6, and 8 h timepoints, and pharmacokinetic parameters calculated. Both representative compounds were rapidly distributed to tissues, as evidenced by the high clearance rates and volumes of distribution, and low levels of excretion (ca 10% of total drug in urine and feces at 8 h). Major tissues were examined for presence of drug. […] The tissue accumulation for the IV dose is shown in FIG. 1, as a function of concentration and percent of total administered dose.

Consider `CN(C)CCCOc1ccc2nc(N)[nH]c2c1`, for which the “MS target selectivity” value in data set [1] (Table 3) is on record as approximately 2.

Take `CN(C)CC1CNc2nc3ccc(OCCCN(C)Cc4ccccn4)cc3n2C1` (stereo not shown) [IBIS00528637]: in data set [2], the MRT came to 2 h and the half-life is 14 h. For the same compound, in data set [2] (read-out: AUC), the AUC came out at 165 ng·h/mL. Moreover, the AUC in data set [2] (read-out: AUC Extrap) stood at 320 ng·h/mL.

As for `CN(C)CCCOc1ccc2nc(N)n(CCCN(C)C)c2c1` [drawing 80], in data set [1] (Table 2), the MS target selectivity is approximately 15.

For the compound `Nc1nc2ccccc2n1CCCN1CCCC1`, in data set [1], the “binding percentage of ligand to target” value came to 15%.

`CN(C)CCCn1c(N)nc2ccccc21` [drawing 73]: the “binding percentage of ligand to target” value in data set [1] was found to be 56% binding.

`CN(C)CCCn1c(N)nc2ccccc21` [drawing 78] yielded an MS target selectivity in data set [1] (Table 2) of approximately 3.

Turning to `CCN(CC)CCn1c(N)nc2ccccc21`, the “binding percentage of ligand to target” value in data set [1] worked out at 15%.

Consider `Nc1nc2ccccc2n1CCOc1ccccc1`, for which the “binding percentage of ligand to target” value in data set [1] was 6%.

As to `CN(C)CCCn1c(N)nc2ccccc21` [drawing 82], the “MS target selectivity” value in data set [1] (Table 3) is reported as approximately 3.

In the case of `COc1ccc2nc(N)n(CCCN(C)C)c2c1`, the MS target selectivity in data set [1] (Table 2) is reported as approximately 10.

Consider `CN(C)CCCn1c(N)nc2ccc(OCCCN(C)Cc3ccco3)cc21` [IBIS00405678], for which, in data set [2], the mean residence time (MRT) came out at 3.1 h and the half-life is 37.5 h. Besides, the exposure (AUC) in data set [2] (read-out: AUC) stood at 311 ng·h/mL. For the same compound, the AUC in data set [2] (read-out: AUC Extrap) was 1930 ng·h/mL.

Take `CN(C)CCn1c(N)nc2ccccc21`: the “binding percentage of ligand to target” value in data set [1] was found to be 11%.

`CN(C)CCCOc1ccc2nc(N)n(CCCN(C)C)c2c1` [drawing 81]: the “MS target selectivity” value in data set [1] (Table 3) is given as approximately 15.
